Source: PubChem BioAssay AID248 (DTP/NCI, 2004)
Where “and” joins values, the source holds several entries; their conditions need not be identical. Identical values can stand only once. Inconclusive results and toxic doses are left out. Cut-off read from the data, not from the text of the source: active = T/C of 150% or more; inactive = T/C below 125%.

System: L1210 leukemia ip in BDF1 mice, survival T/C
Assay: NCI In Vivo Anticancer Drug Screen. Data for tumor model L1210 Leukemia (intraperitoneal) in B6D2F1 (BDF1) mice
Settings: endpoint: mean survival time, higher = longer survival
Method in brief: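 Read-out is survival time, reported as the treated-group measurement over the vehicle-control measurement.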

[1] = dose: 100.0 mg/kg/injection, schedule: Q01DX009 (ip), vehicle: Klucel (hydroxypropylcellulose) (HPC)
[2] = dose: 100.0 mg/kg/injection, schedule: Q04DX003 (ip), vehicle: Klucel (hydroxypropylcellulose) (HPC)
[3] = dose: 100.0 mg/kg/injection, schedule: Q01DX009 (ip), vehicle: saline

Measured: T/C

COc1cc(Cn2cccc2C=O)c([N+](=O)[O-])cc1OC
inactive: dose: 25.0 mg/kg/injection, schedule: Q04DX002 (ip), vehicle: Klucel (hydroxypropylcellulose) (HPC) 89 % of control | dose: 50.0 mg/kg/injection, schedule: Q04DX002 (ip), vehicle: Klucel (hydroxypropylcellulose) (HPC) 101 % of control | dose: 100.0 mg/kg/injection, schedule: Q04DX002 (ip), vehicle: Klucel (hydroxypropylcellulose) (HPC) 86 % of control

CCc1ccc(C2=C(Cl)C(=O)C(c3ccc(CC)cc3)=C(Cl)C2=O)cc1
inactive: dose: 10.0 mg/kg/injection, schedule: Q01DX001 (ip), vehicle: carboxymethylcellulose (CMC) 100 % of control | dose: 20.0 mg/kg/injection, schedule: Q01DX001 (ip), vehicle: carboxymethylcellulose (CMC) 100 % of control | dose: 40.0 mg/kg/injection, schedule: Q01DX001 (ip), vehicle: carboxymethylcellulose (CMC) 102 % of control | dose: 80.0 mg/kg/injection, schedule: Q01DX001 (ip), vehicle: carboxymethylcellulose (CMC) 100 % of control | dose: 100.0 mg/kg/injection, schedule: Q01DX001 (ip), vehicle: carboxymethylcellulose (CMC) 88 % of control

CCS/C(Cl)=C(\Cl)SCC
inactive: dose: 25.0 mg/kg/injection, schedule: Q01DX009 (ip), vehicle: Klucel (hydroxypropylcellulose) (HPC) 101 % of control | dose: 50.0 mg/kg/injection, schedule: Q01DX009 (ip), vehicle: Klucel (hydroxypropylcellulose) (HPC) 106 % of control | [1] 102 % of control and 109 % of control

CC(C)CCOC(=O)Nc1cccc(Cl)c1
inactive: dose: 75.0 mg/kg/injection, schedule: Q01DX009 (ip), vehicle: saline with Tween-80 113 % of control | dose: 100.0 mg/kg/injection, schedule: Q04DX002 (ip), vehicle: saline with Tween-80 93 % of control | dose: 150.0 mg/kg/injection, schedule: Q01DX009 (ip), vehicle: saline with Tween-80 103 % of control | dose: 200.0 mg/kg/injection, schedule: Q04DX002 (ip), vehicle: saline with Tween-80 86 % of control | dose: 300.0 mg/kg/injection, schedule: Q01DX009 (ip), vehicle: saline with Tween-80 98 % of control | dose: 400.0 mg/kg/injection, schedule: Q04DX002 (ip), vehicle: saline with Tween-80 89 % of control

CC(NC(=O)OCc1ccccc1)C(=O)Nc1ccc(C(=O)O)c(O)c1 (stereo unspecified)
inactive: dose: 100.0 mg/kg/injection, schedule: Q01DX009 (ip), vehicle: saline with Tween-80 90 % of control | dose: 200.0 mg/kg/injection, schedule: Q01DX009 (ip), vehicle: saline with Tween-80 88 % of control | dose: 400.0 mg/kg/injection, schedule: Q01DX009 (ip), vehicle: saline with Tween-80 98 % of control

COc1ccc(OC)c(NC(=O)Nc2ccc(N(C)C)cc2)c1
inactive: [2] 93 % of control | dose: 200.0 mg/kg/injection, schedule: Q04DX003 (ip), vehicle: Klucel (hydroxypropylcellulose) (HPC) 97 % of control | dose: 400.0 mg/kg/injection, schedule: Q04DX003 (ip), vehicle: Klucel (hydroxypropylcellulose) (HPC) 95 % of control

Nc1ccc2nc(N)nc(N)c2c1
inactive: dose: 37.5 mg/kg/injection, schedule: Q01DX009 (ip), vehicle: Klucel (hydroxypropylcellulose) (HPC) 121 % of control | dose: 65.0 mg/kg/injection, schedule: Q04DX003 (ip), vehicle: Klucel (hydroxypropylcellulose) (HPC) 106 % of control | dose: 75.0 mg/kg/injection, schedule: Q01DX009 (ip), vehicle: Klucel (hydroxypropylcellulose) (HPC) 107 % of control | [2] 112 % of control | dose: 150.0 mg/kg/injection, schedule: Q04DX003 (ip), vehicle: Klucel (hydroxypropylcellulose) (HPC) 112 % of control

C=CCNC(=O)C(Br)(CC)CC
inactive: [3] 92 % of control | dose: 100.0 mg/kg/injection, schedule: Q04DX003 (ip), vehicle: saline 96 % of control | dose: 200.0 mg/kg/injection, schedule: Q01DX009 (ip), vehicle: saline 92 % of control | dose: 200.0 mg/kg/injection, schedule: Q04DX003 (ip), vehicle: saline 96 % of control

CCC/C=C(\C)CCCCCCCCC (tested in a mixture with another compound)
inactive: dose: 100.0 mg/kg/injection, schedule: Q04DX003 (ip), vehicle: saline with Tween-80 98 % of control | dose: 200.0 mg/kg/injection, schedule: Q04DX003 (ip), vehicle: saline with Tween-80 101 % of control | dose: 400.0 mg/kg/injection, schedule: Q04DX003 (ip), vehicle: saline with Tween-80 106 % of control

O=C(NCCBr)C(F)(F)F
inactive: dose: 25.0 mg/kg/injection, schedule: Q01DX009 (ip), vehicle: saline 113 % of control | dose: 50.0 mg/kg/injection, schedule: Q01DX009 (ip), vehicle: saline 103 % of control | dose: 100.0 mg/kg/injection, schedule: Q01DX001 (ip), vehicle: saline 104 % of control | [3] 105 % of control | dose: 200.0 mg/kg/injection, schedule: Q01DX001 (ip), vehicle: saline 109 % of control | dose: 400.0 mg/kg/injection, schedule: Q01DX001 (ip), vehicle: saline 112 % of control

CC(C)(CC(=O)O)CC(=O)OCC(=O)[C@@]1(O)CC[C@H]2[C@@H]3CCC4=CC(=O)C=C[C@]4(C)[C@H]3[C@@H](O)C[C@@]21C
inactive: dose: 20.0 mg/kg/injection, schedule: Q01DX009 (ip), vehicle: steriod suspending solution 103 % of control | dose: 40.0 mg/kg/injection, schedule: Q01DX009 (ip), vehicle: steriod suspending solution 103 % of control | dose: 50.0 mg/kg/injection, schedule: Q01DX001 (sc), vehicle: steriod suspending solution 102 % of control | dose: 80.0 mg/kg/injection, schedule: Q01DX009 (ip), vehicle: steriod suspending solution 111 % of control | dose: 100.0 mg/kg/injection, schedule: Q01DX001 (sc), vehicle: steriod suspending solution 100 % of control | dose: 100.0 mg/kg/injection, schedule: Q01DX009 (sc), vehicle: steriod suspending solution 93 % of control | dose: 100.0 mg/kg/injection, schedule: Q04DX003 (sc), vehicle: steriod suspending solution 98 % of control | dose: 200.0 mg/kg/injection, schedule: Q01DX001 (sc), vehicle: steriod suspending solution 113 % of control | dose: 200.0 mg/kg/injection, schedule: Q01DX009 (sc), vehicle: steriod suspending solution 104 % of control and 118 % of control | dose: 200.0 mg/kg/injection, schedule: Q04DX003 (sc), vehicle: steriod suspending solution 110 % of control | dose: 400.0 mg/kg/injection, schedule: Q01DX001 (sc), vehicle: steriod suspending solution 107 % of control | dose: 400.0 mg/kg/injection, schedule: Q01DX009 (sc), vehicle: steriod suspending solution 102 % of control and 124 % of control | dose: 400.0 mg/kg/injection, schedule: Q04DX003 (sc), vehicle: steriod suspending solution 104 % of control

C/C=C/c1ccc2oc(-c3ccc(OC4OC(C)C(O)C(O)C4O)cc3)c(C)c2c1 (stereo unspecified)
inactive: dose: 100.0 mg/kg/injection, schedule: Q01DX001 (ip), vehicle: Klucel (hydroxypropylcellulose) (HPC) 93 % of control | dose: 200.0 mg/kg/injection, schedule: Q01DX001 (ip), vehicle: Klucel (hydroxypropylcellulose) (HPC) 90 % of control | dose: 400.0 mg/kg/injection, schedule: Q01DX001 (ip), vehicle: Klucel (hydroxypropylcellulose) (HPC) 96 % of control

Nc1nc(-c2ccccc2)[nH]c(=O)n1
inactive: [1] 100 % of control | dose: 200.0 mg/kg/injection, schedule: Q01DX009 (ip), vehicle: Klucel (hydroxypropylcellulose) (HPC) 91 % of control | dose: 400.0 mg/kg/injection, schedule: Q01DX009 (ip), vehicle: Klucel (hydroxypropylcellulose) (HPC) 93 % of control

CC(=O)OC(C(C)=O)C(C)=O.CC(=O)OC(C(C)=O)C(C)=O.[Cu]
inactive: dose: 12.0 mg/kg/injection, schedule: Q01DX001 (ip), vehicle: saline 93 % of control | dose: 12.0 mg/kg/injection, schedule: Q04DX003 (ip), vehicle: saline 96 % of control | dose: 25.0 mg/kg/injection, schedule: Q01DX001 (ip), vehicle: saline 95 % of control | dose: 25.0 mg/kg/injection, schedule: Q04DX003 (ip), vehicle: saline 96 % of control | dose: 50.0 mg/kg/injection, schedule: Q01DX001 (ip), vehicle: saline 101 % of control | dose: 50.0 mg/kg/injection, schedule: Q04DX003 (ip), vehicle: saline 103 % of control
